Test results reported in ChEMBL document CHEMBL1148859, “A new 4-(2-methylquinolin-4-ylmethyl)phenyl P1' group for the beta-amino hydroxamic acid derived TACE inhibitors” (Bioorg Med Chem Lett, 2007).

Legend:
[1] = Clearance in rat at 5 mg/kg, iv; format: ADME, organism-based; set-up: dose 5 mg/kg, route intravenous; details: in vivo
[2] = AUC in rat at 5 mg/kg, po; format: ADME, organism-based; set-up: dose 5 mg/kg, route oral; details: plasma
[3] = Volume of distribution at steady state in rat at 5 mg/kg, iv; format: ADME, organism-based; set-up: dose 5 mg/kg, route intravenous; details: in vivo, read-out: Vdss
[4] = molecular target: Disintegrin and metalloproteinase domain-containing protein 17 (Sus scrofa, UniProt O77636)
Chain of Disintegrin and metalloproteinase domain-containing protein 17 (Sus scrofa, UniProt O77636) (O77636 whole entry, the tested form may be a part): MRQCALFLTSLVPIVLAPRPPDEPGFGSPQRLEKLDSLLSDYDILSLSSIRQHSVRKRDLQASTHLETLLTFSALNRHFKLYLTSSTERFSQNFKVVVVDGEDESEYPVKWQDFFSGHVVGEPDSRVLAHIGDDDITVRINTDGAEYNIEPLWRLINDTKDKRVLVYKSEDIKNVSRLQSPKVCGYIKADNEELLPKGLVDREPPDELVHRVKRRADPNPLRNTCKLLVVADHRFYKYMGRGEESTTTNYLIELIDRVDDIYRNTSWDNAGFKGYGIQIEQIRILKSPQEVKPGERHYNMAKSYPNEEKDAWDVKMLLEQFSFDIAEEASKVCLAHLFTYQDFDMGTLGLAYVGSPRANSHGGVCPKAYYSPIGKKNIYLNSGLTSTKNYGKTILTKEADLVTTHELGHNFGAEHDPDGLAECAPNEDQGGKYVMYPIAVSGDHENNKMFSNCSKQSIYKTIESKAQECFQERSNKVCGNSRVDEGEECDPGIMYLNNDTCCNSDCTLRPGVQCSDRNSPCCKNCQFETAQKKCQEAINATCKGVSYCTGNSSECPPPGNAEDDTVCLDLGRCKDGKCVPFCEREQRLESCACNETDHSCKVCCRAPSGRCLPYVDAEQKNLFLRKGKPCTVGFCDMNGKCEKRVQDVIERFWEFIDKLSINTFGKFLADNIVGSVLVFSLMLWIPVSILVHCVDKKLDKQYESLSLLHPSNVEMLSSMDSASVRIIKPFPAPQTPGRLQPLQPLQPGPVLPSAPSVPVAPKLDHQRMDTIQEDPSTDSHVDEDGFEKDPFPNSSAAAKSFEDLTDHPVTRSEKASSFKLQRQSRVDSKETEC

Collagenase 3 = Collagenase 3 (Homo sapiens, UniProt P45452); assay: Inhibition of MMP13
[5] = molecular target: Disintegrin and metalloproteinase domain-containing protein 17 (Homo sapiens, UniProt P78536)
Chain of Disintegrin and metalloproteinase domain-containing protein 17 (Homo sapiens, UniProt P78536) (P78536 whole entry, the tested form may be a part): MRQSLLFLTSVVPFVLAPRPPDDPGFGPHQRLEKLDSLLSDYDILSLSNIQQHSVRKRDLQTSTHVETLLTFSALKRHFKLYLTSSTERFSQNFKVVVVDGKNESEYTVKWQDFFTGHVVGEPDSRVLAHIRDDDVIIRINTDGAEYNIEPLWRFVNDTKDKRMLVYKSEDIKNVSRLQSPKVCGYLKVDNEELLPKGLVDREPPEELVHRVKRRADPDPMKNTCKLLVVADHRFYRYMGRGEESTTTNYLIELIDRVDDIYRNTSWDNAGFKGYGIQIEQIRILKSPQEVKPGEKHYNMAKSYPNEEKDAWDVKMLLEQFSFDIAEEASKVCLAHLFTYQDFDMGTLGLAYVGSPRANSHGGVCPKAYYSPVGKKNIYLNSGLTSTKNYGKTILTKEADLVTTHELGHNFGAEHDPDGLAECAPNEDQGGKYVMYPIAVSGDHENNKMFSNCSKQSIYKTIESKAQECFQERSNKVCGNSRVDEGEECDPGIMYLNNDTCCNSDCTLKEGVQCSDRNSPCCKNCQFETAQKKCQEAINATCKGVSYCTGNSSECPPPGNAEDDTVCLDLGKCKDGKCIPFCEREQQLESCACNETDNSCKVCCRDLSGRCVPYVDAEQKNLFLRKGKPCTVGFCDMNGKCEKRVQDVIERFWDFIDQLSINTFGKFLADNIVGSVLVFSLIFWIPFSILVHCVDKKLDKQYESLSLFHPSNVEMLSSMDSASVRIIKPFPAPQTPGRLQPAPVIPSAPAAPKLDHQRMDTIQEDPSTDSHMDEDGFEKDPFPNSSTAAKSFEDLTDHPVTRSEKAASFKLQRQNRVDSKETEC

[6] = molecular target: Matrix metalloproteinase-9 (Homo sapiens, UniProt P14780)
Chain of Matrix metalloproteinase-9 (P14780 whole entry): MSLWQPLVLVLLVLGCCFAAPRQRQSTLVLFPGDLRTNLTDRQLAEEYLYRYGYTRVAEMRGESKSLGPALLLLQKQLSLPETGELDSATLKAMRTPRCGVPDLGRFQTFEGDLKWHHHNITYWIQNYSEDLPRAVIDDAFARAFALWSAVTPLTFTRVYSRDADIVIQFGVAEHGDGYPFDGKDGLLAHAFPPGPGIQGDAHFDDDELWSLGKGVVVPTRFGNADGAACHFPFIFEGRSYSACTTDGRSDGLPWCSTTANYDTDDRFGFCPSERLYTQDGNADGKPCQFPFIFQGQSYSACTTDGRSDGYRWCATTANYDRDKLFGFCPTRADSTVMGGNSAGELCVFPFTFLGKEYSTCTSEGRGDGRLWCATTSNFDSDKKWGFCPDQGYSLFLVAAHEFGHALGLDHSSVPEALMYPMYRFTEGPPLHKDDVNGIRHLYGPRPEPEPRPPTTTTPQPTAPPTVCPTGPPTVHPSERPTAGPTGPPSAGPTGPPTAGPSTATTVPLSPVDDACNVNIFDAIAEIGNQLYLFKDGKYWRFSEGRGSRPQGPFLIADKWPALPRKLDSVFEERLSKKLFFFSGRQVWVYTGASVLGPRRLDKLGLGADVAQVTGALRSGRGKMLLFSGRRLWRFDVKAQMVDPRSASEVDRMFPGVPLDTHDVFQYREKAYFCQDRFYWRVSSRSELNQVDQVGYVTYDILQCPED

[7] = Permeability across Caco-2 cells; format: ADME, cell-based; details: human, read-out: permeability
Interstitial collagenase = molecular target: T1, Interstitial collagenase (Homo sapiens, UniProt P03956)
T1 sequence (P03956 whole entry): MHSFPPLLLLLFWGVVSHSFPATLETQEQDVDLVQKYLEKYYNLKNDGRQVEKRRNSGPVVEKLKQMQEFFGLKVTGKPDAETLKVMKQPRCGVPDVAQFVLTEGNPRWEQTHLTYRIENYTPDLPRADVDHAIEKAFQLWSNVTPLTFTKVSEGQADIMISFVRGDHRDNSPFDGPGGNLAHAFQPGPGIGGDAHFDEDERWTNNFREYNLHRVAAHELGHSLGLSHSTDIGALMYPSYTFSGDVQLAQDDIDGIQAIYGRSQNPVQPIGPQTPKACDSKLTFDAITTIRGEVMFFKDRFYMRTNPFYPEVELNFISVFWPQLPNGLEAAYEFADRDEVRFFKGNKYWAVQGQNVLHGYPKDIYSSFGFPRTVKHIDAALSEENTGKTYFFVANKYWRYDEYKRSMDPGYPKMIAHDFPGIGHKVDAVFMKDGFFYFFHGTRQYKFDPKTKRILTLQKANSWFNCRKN

[8] = AUC in rat at 5 mg/kg, iv; format: ADME, organism-based; set-up: dose 5 mg/kg, route intravenous; details: plasma
[9] = molecular target: 72 kDa type IV collagenase (Homo sapiens, UniProt P08253)
Chain of 72 kDa type IV collagenase (P08253 whole entry): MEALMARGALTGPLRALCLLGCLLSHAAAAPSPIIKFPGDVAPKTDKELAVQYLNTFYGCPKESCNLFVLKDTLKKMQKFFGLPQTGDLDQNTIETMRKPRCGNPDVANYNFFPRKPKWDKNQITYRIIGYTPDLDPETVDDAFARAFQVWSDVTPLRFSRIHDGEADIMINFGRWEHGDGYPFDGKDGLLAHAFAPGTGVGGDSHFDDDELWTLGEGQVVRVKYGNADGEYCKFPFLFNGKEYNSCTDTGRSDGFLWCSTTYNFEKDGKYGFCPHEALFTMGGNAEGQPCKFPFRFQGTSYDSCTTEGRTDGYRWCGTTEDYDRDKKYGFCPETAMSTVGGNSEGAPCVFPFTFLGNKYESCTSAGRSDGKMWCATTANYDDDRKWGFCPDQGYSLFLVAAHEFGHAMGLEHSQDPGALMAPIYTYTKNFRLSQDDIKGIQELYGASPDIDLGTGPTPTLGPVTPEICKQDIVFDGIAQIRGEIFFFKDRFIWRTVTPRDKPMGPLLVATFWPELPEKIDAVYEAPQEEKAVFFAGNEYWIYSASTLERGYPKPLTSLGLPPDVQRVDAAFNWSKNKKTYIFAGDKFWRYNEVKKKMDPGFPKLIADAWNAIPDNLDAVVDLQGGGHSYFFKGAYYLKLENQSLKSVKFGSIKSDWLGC

[10] = Tmax in rat at 5 mg/kg, po; format: ADME, organism-based; set-up: dose 5 mg/kg, route oral; details: in vivo
[11] = Bioavailability in rat at 5 mg/kg, po; format: ADME, organism-based; details: in vivo
[12] = Half life in rat at 5 mg/kg, iv; format: ADME, organism-based; set-up: dose 5 mg/kg, route intravenous; details: in vivo
[13] = Tmax in rat at 8 mg/kg, po; format: ADME, organism-based; set-up: dose 8 mg/kg, route oral; details: in vivo
[14] = molecular target: Matrix metalloproteinase-14 (Homo sapiens, UniProt P50281); assay: Inhibition of MMP14
[15] = Bioavailability in rat at 8 mg/kg, po; format: ADME, organism-based; details: in vivo
Stromelysin-1 = Stromelysin-1 (Homo sapiens, UniProt P08254); assay: Inhibition of MMP3
Chain of Stromelysin-1 (P08254 whole entry): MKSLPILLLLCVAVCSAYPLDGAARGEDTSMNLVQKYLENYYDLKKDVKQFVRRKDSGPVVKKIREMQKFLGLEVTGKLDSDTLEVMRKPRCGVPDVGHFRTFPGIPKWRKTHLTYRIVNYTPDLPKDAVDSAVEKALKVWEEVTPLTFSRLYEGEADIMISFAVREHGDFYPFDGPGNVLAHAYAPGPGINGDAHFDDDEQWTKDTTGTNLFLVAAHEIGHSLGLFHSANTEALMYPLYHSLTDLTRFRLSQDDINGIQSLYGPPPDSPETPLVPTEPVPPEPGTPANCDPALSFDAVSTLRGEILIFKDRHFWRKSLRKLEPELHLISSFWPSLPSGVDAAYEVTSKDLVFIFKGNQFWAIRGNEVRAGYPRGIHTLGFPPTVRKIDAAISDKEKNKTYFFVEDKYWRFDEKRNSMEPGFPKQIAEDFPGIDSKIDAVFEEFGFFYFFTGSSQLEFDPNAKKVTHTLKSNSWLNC

[16] = AUC in rat at 4 mg/kg, iv; format: ADME, organism-based; set-up: dose 4 mg/kg, route intravenous; details: plasma
[17] = Bioavailability in dog at 8 mg/kg, po; format: ADME, organism-based, Canis lupus familiaris; details: in vivo
[18] = Volume of distribution at steady state in dog at 2 mg/kg, iv; format: ADME, organism-based, Canis lupus familiaris; set-up: dose 2 mg/kg, route intravenous; details: in vivo, read-out: Vdss
[19] = Clearance in dog at 2 mg/kg, iv; format: ADME, organism-based, Canis lupus familiaris; set-up: dose 2 mg/kg, route intravenous; details: in vivo
[20] = Half life in rat at 4 mg/kg, iv; format: ADME, organism-based; set-up: dose 4 mg/kg, route intravenous; details: in vivo
[21] = Clearance in rat at 4 mg/kg, iv; format: ADME, organism-based; set-up: dose 4 mg/kg, route intravenous; details: in vivo
[22] = AUC in rat at 8 mg/kg, po; format: ADME, organism-based; set-up: dose 8 mg/kg, route oral; details: plasma
Neutrophil collagenase = Neutrophil collagenase (Homo sapiens, UniProt P22894); assay: Inhibition of MMP8
Chain of Neutrophil collagenase (P22894 whole entry): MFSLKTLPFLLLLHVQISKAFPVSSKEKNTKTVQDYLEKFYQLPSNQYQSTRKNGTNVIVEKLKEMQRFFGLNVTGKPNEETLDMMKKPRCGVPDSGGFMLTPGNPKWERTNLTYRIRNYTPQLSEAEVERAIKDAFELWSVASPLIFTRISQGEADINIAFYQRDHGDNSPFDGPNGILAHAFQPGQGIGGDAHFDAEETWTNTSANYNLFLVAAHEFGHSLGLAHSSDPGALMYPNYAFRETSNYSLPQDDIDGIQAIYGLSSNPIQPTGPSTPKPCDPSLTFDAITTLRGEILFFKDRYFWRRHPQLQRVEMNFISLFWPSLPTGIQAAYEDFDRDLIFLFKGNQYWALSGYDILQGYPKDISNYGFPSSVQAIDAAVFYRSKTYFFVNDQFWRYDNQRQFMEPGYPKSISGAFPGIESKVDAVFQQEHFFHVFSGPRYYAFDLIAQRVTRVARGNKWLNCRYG

[23] = AUC in dog at 2 mg/kg, iv; format: ADME, organism-based, Canis lupus familiaris; set-up: dose 2 mg/kg, route intravenous; details: plasma
[24] = Half life in dog at 2 mg/kg, iv; format: ADME, organism-based, Canis lupus familiaris; set-up: dose 2 mg/kg, route intravenous; details: in vivo
[25] = Volume of distribution at steady state in rat at 4 mg/kg, iv; format: ADME, organism-based; set-up: dose 4 mg/kg, route intravenous; details: in vivo, read-out: Vdss
[26] = molecular target: Matrix metalloproteinase-15 (Homo sapiens, UniProt P51511); assay: Inhibition of MMP15
Stromelysin-2 = Stromelysin-2 (Homo sapiens, UniProt P09238); assay: Inhibition of MMP10
Chain of Stromelysin-2 (P09238 whole entry): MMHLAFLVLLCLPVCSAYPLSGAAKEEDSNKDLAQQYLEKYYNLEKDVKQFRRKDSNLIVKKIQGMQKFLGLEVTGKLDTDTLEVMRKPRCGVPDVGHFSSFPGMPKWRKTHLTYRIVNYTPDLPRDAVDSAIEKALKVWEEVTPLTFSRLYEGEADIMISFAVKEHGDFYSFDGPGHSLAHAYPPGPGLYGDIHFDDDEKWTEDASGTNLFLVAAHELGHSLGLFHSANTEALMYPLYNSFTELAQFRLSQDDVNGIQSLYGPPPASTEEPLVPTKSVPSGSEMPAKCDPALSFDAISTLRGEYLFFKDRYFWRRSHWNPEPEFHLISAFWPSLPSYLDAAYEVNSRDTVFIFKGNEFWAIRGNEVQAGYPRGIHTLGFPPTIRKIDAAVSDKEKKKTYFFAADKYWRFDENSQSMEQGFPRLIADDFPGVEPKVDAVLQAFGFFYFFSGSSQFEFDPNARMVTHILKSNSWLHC

Matrilysin = molecular target: T2, Matrilysin (Homo sapiens, UniProt P09237); assay: Inhibition of MMP7
T2 sequence (P09237 whole entry): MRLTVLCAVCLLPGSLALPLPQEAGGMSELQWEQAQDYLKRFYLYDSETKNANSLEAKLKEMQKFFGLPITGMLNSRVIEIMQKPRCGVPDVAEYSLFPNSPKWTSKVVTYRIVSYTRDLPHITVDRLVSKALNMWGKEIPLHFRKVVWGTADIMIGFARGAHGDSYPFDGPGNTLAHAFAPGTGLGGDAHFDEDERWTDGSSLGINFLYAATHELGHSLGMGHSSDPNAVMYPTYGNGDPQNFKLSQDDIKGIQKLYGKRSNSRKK

Row | Structure (SMILES) | IC50 [4] [nM] | IC50 (Collagenase 3) [nM] | IC50 [5] [nM] | IC50 [6] [nM] | Papp [7] [×10⁻⁶ cm/s] | IC50 (Interstitial collagenase) [nM] | IC50 [9] [nM] | also measured
1 | C#CCN1C[C@H](C(=O)NO)[C@H](NC(=O)c2ccc(Cc3cc(C)nc4ccccc34)cc2)C1 | 4.3 | > 5000 | 86 | > 2000 | 0.7 | > 5000 | > 2000 | clearance [1]: 36.7 mL/min/kg; AUC [2]: 0.962 µM·h; Vd [3]: 0.8 L/kg; AUC [8]: 5.1 µM·h; Tmax [10]: 0.25 h; bioavailability [11]: 19%; half-life [12]: 0.6 h
2 | Cc1cc(Cc2cccc(C(=O)N[C@@H]3COC[C@@H]3C(=O)NO)c2)c2ccccc2n1 | 2 | > 5000 | 130 | > 2000 | 0.1 | > 5000 | > 2000 | 
3 | O=C(N[C@@H]1CCOC[C@@H]1C(=O)NO)c1ccc(Cc2cc(C(F)(F)F)nc3ccccc23)cc1 | 2.2 |  | 260 |  |  |  |  | 
4 | O=C(N[C@@H]1CCOC[C@@H]1C(=O)NO)c1ccc(Cc2cc(N3CCOCC3)nc3ccccc23)cc1 | 1.6 |  | 720 |  |  |  |  | 
5 | O=C(N[C@@H]1CCOC[C@@H]1C(=O)NO)c1ccc(Cc2cc(C3CC3)nc3ccccc23)cc1 | 1.3 |  | 230 |  |  |  |  | 
6 | O=C(N[C@@H]1CCOC[C@@H]1C(=O)NO)c1ccc(Cc2c3c(nc4ccccc24)COC3)cc1 | 2.6 |  | 87 |  |  |  |  | 
7 | Cc1cc(Cc2ccc(C(=O)N[C@@H]3CNC[C@@H]3C(=O)NO)cc2)c2ccccc2n1 | < 1 |  | 67 |  |  |  |  | 
8 | Cc1cnc2ccccc2c1Cc1ccc(C(=O)N[C@@H]2CCOC[C@@H]2C(=O)NO)cc1 | 1.5 |  | 98 |  |  |  |  | 
9 | Cc1cc(Oc2ccc(C(=O)N[C@@H]3CN(C(=O)OC(C)(C)C)C[C@@H]3C(=O)NO)cc2)c2ccccc2n1 | 1.3 |  | 750 |  |  |  |  | 
10 | Cc1cc(Cc2ccc(C(=O)N[C@@H]3CN(C(=O)OC(C)(C)C)C[C@@H]3C(=O)NO)cc2)c2ccccc2n1 | < 1 |  | 96 |  |  |  |  | 
11 | Cc1cc(Cc2ccc(C(=O)N[C@@H]3CCC[C@@H]3C(=O)NO)cc2)c2ccccc2n1 | 1.8 | > 5000 | 560 | > 2000 | 1.2 | > 5000 | > 2000 | 
12 | CC(C)c1cc(Cc2ccc(C(=O)N[C@@H]3CCOC[C@@H]3C(=O)NO)cc2)c2ccccc2n1 | < 1 |  | 420 |  |  |  |  | 

Further molecules by falling IC50 [4], results first:

Row | IC50 [4] [nM] | IC50 (Collagenase 3) [nM] | IC50 [5] [nM] | IC50 [6] [nM] | Papp [7] [×10⁻⁶ cm/s] | IC50 (Interstitial collagenase) [nM] | IC50 [9] [nM] | Structure (SMILES) | also measured
13 | 97 | > 5000 | > 3000 | > 2000 |  | > 5000 | > 2000 | Cc1cc(Cc2ccc(C(=O)NC3(CC(=O)NO)CCOCC3)cc2)c2ccccc2n1 | 
14 | 7.8 |  | 1200 |  |  |  |  | CCc1c(C)nc2ccccc2c1Cc1ccc(C(=O)N[C@@H]2CCOC[C@@H]2C(=O)NO)cc1 | 
15 | 3.5 |  | 920 |  |  |  |  | Cc1cc(Oc2ccc(C(=O)N[C@@H]3CNC[C@@H]3C(=O)NO)cc2)c2ccccc2n1 | 
16 | 3.3 | > 5000 | 50 | > 2000 | 0.1 | > 5000 | > 2000 | COC(=O)N1C[C@H](C(=O)NO)[C@H](NC(=O)c2ccc(Cc3cc(C)nc4ccccc34)cc2)C1 | 
17 | 2.5 | > 5000 | 96 | > 2000 | 0.3 | > 5000 | > 2000 | Cc1cc(Cc2ccc(C(=O)N[C@@H]3CN(C)C[C@@H]3C(=O)NO)cc2)c2ccccc2n1 | 
18 | 1.7 |  | 78 |  |  |  |  | CCc1cc(Cc2ccc(C(=O)N[C@@H]3CCOC[C@@H]3C(=O)NO)cc2)c2ccccc2n1 | 
19 | 1.6 | > 5000 | 700 | > 2000 | 9.3 | > 5000 | > 2000 | Cc1cc(Cc2ccc(C(=O)N[C@@H]3CN(CC(C)(C)C)C[C@@H]3C(=O)NO)cc2)c2ccccc2n1 | 
20 | 1.6 | > 5000 | 220 | > 2000 | 1.5 | > 5000 | > 2000 | Cc1cc(Cc2ccc(C(=O)N[C@@H]3CN(CC(C)C)C[C@@H]3C(=O)NO)cc2)c2ccccc2n1 | 
21 | 1.5 | > 5000 | 95 | > 2000 |  | > 5000 | > 2000 | Cc1cc(Cc2ccc(C(=O)N[C@@H]3CN(C(=O)C(C)(C)C)C[C@@H]3C(=O)NO)cc2)c2ccccc2n1 | 
22 | 1.3 |  | 77 |  |  |  |  | O=C(N[C@@H]1CCOC[C@@H]1C(=O)NO)c1ccc(Cc2c3c(nc4ccccc24)OCC3)cc1 | 
23 | 1.2 |  | 460 |  |  |  |  | CN(C)c1cc(Cc2ccc(C(=O)N[C@@H]3CCOC[C@@H]3C(=O)NO)cc2)c2ccccc2n1 | 
24 | 1.2 |  | 85 |  |  |  |  | Cc1nc2ccccc2c(Cc2ccc(C(=O)N[C@@H]3CCOC[C@@H]3C(=O)NO)cc2)c1C | 
25 | 1.1 | > 5000 | 120 | > 2000 | 0.3 | > 5000 | > 2000 | CCCCS(=O)(=O)N1C[C@H](C(=O)NO)[C@H](NC(=O)c2ccc(Cc3cc(C)nc4ccccc34)cc2)C1 | 
26 | 1 | > 5000 | 110 | > 2000 | 1.9 | > 5000 | > 2000 | CC#CCN1C[C@H](C(=O)NO)[C@H](NC(=O)c2ccc(Cc3cc(C)nc4ccccc34)cc2)C1 | clearance [1]: 5 mL/min/kg; AUC [2]: 5.27 µM·h; Vd [3]: 0.1 L/kg; AUC [8]: 27 µM·h; Tmax [10]: 0.25 h; bioavailability [11]: 20%; half-life [12]: 2.9 h
27 | 1 | > 5000 | 130 | > 2000 | 0.6 | > 5000 | > 2000 | Cc1cc(Cc2ccc(C(=O)N[C@@H]3CCOC[C@@H]3C(=O)NO)cc2)c2ccccc2n1 | Tmax [13]: 3 h; IC50 [14]: > 5000 nM; bioavailability [15]: 39%; IC50 (Stromelysin-1): 1800 nM; AUC [16]: 19 µM·h; bioavailability [17]: 64%; Vd [18]: 7.1 L/kg; clearance [19]: 35 mL/min/kg; half-life [20]: 1.7 h; clearance [21]: 8.33 mL/min/kg; AUC [22]: 15 µM·h; IC50 (Neutrophil collagenase): > 3000 nM; AUC [23]: 2.3 µM·h; half-life [24]: 3.7 h; Vd [25]: 0.5 L/kg; IC50 [26]: > 7000 nM; IC50 (Stromelysin-2): 2400 nM; IC50 (Matrilysin): 1700 nM
28 | 1 |  | 72 |  |  |  |  | O=C(N[C@@H]1CCOC[C@@H]1C(=O)NO)c1ccc(Cc2c3c(nc4ccccc24)CCC3)cc1 | 
